According to patent US20220288207A1, “PHOTO INDUCED CONTROL OF PROTEIN DESTRUCTION” (Beth Israel Deaconess Medical Center, Inc., priority 2019, published 2022):
Entries after “also recorded” stand apart in the source; their conditions may differ.

Tests used:
[1] = Uncaging (photolysis) by UVA irradiation in vitro, UV-VIS absorption / UPLC-MS analysis; assay type: physicochemical; conditions: 1 mM, UVA 365 nm, time course
Protocol: HPLC spectra were acquired using an Agilent 1200 Series system with DAD detector for all the intermediates and Opto-PROTACs below. Chromatography was performed on a 2.1×150 mm Zorbax 300SB-C18 5 μm column with water containing 0.1% formic acid as solvent A and acetonitrile containing 0.1% formic acid as solvent B at a flow rate of 0.4 ml/min. The gradient program was as follows: 1% B (0-1 min), 1-99% B (1-4 min), and 99% B (4-8 min). High-resolution mass spectra (FIRMS) data were acquired in positive ion mode using an Agilent G1969A API-TOF with an electrospray ionization (ESI) source. Nuclear Magnetic Resonance (NMR) spectra were acquired on a Bruker DRX-600 spectrometer with 600 MHz for proton (^1H NMR) and 151 MHz for carbon (^13C NMR); chemical shifts are reported in (δ). Preparative HPLC was performed on Agilent Prep 1200 series with UV detector set to 254 nm. Samples were injected onto a Phenomenex Luna 250×30 mm, 5 μm, C18 column at room temperature. The flow rate was 40 ml/min. A linear gradient was used with 10% of acetonitrile (A) in H2O (with 0.1% TFA) (B) to 100% of acetonitrile (A). HPLC was used to establish the purity of target compounds. All final compounds had >95% purity using the HPLC methods described above.
(§1) UV-Vis spectrometry was performed on a NanoDrop-2000 UV-Visible Spectrophotometer. Pomalidomide, opto-pomalidomide, dBET1, opto-dBET1, dALK and opto-dALK were dissolved in DMSO and diluted to indicated concentration, followed by UVA irradiation for indicated duration of time. Then the samples were subjected to UV-Vis spectrometry analysis. Pomalidomide and opto-pomalidomide mixture solutions were made with the indicated ratio. Absorption values at 364 nm were measured to draw standard curve. dBET1 and opto-dBET1 mixture solution were made with the indicated ratios. Absorption values at 340 nm were measured to draw standard curve. dALK and opto-dALK mixture solution were made with indicated ratio. Absorption values at 370 nm were measured to draw standard curve.

[2] = UV-VIS absorption spectrum; assay type: physicochemical; conditions: in DMSO
Protocol: as §1

CRBN = target: T1, CRBN (Homo sapiens, UniProt Q96SW2); test: Competitive binding in vitro pull-down assay (biotin-pomalidomide pulls down Flag-CRBN)
T1 construct: made in house; host or cells: HEK293T
Protocol: Flag-CRBN was expressed in HEK293T cells lysed in PROTAC buffer B (50 mM Tris pH 7.5, 150 mM NaCl, 0.5% NP-40) supplemented with protease inhibitors (cOmplete Mini, Roche) and phosphatase inhibitors (phosphatase inhibitor cocktail set I and II, Calbiochem). 3mg cell lysis was incubated with 10 μl 10mM biotin-pomalidomide and […] streptavidin beads for 1 h at 4° C. in the absence or presence of pomalidomide or opto-pomalidomide. Then, the beads were washed four times with NETN buffer (20 mM Tris, pH 8.0, 100 mM NaCl, 1 mM EDTA and 0.5% NP-40) before being resolved by SDS-PAGE and immunoblotted with indicated antibodies.

CRBN and IKZF1 = target: T2, CRBN and IKZF1 (Homo sapiens, UniProt Q13422+Q96SW2); test: CRBN-IKZF1 interaction, Flag-IP and immunoblot in HEK293T cells; assay type: cell-based; conditions: 10 μM MG132 12 hours
T2 construct: expressed in transfected cells; host or cells: HEK293T
Protocol: (§2) MM.1S, MT2, C4-2, NCI-H2228 and NCI-H3122 cells were cultured in RPMI1640 containing 10% fetal bovine serum (FBS), 100 Units of penicillin and 100 μg/ml streptomycin. […] For UVA irradiation, cells were pretreated with opto-PROTACs for 2-4 hours, and then subjected to UVA irradiation for indicated durations.
(§3) Cells were lysed in EBC lysis buffer (50 mM Tris pH 7.5, 120 mM NaCl, 0.5% NP-40), supplemented with protease inhibitors (cOmplete Mini, Roche) and phosphatase inhibitors (phosphatase inhibitor cocktail set I and II, Calbiochem). The protein concentrations of the lysates were measured using the Bio-Rad protein assay reagent on a Beckman Coulter DU-800 spectrophotometer. The lysates were then resolved by sodium dodecylsulfate-polyacrylamide gel ectrophoresis (SDS-PAGE) and immunoblotted with indicated antibodies. For immunoprecipitation, 1 mg lysates were incubated with the appropriate sepharose beads for 4 h at 4° C. Immuno-complexes were washed four times with NETN lysis buffer (20 mM Tris, pH 8.0, 100 mM NaCl, 1 mM EDTA and 0.5% NP-40) before being resolved by SDS-PAGE and immunoblotted with indicated antibodies.

IKZF1/3 = IKZF1/3 degradation, immunoblot of MM1S cells; assay type: cell-based
Protocol: as §2, §3

MM1S cells = test: CCK-8 cell viability assay, MM1S cells; assay type: cell-based; conditions: MM1S cells, UVA irradiation (365 nm) 15 min
Protocol: (§4) Human embryonic kidney 293T (HEK293T) cells and HEK293FT were maintained in Dulbecco's Modified Eagle's Medium (DMEM) containing 10% fetal bovine serum (FBS), 100 Units of penicillin and […] streptomycin. MM.1S, MT2, C4-2, NCI-H2228 and NCI-H3122 cells were cultured in RPMI1640 containing 10% fetal bovine serum (FBS), 100 Units of penicillin and 100 μg/ml streptomycin. 293FT^CRBN+/+, 293FT^CRBN+/+ , MM.1S^CRBN+/+ and MM.1S^CRBN−/− cells were provided Dr. William G. Kaelin (Dana-Farber Cancer Institute). For UVA irradiation, cells were pretreated with opto-PROTACs for 2-4 hours, and then subjected to UVA irradiation for indicated durations.
(§5) Cell in 96-well plates were incubated with 10 ul/well of CCK-8 solution and incubated for 2 hours, followed by the measurement of optical density using a microplate reader with a 450 nm filter (O.D. 450).

MT2 cells = test: CCK-8 cell viability assay, MT2 cells; assay type: cell-based; conditions: UVA irradiation (365 nm) 15 min
Protocol: as §4, §5

IKZF1 [3] = target: T3, IKZF1 (Homo sapiens, UniProt Q13422+Q96SW2); test: IKZF1 degradation, immunoblot of MT2 cells; assay type: cell-based; parameters: endogenous in cells; host or cells: MT2; conditions: with UVA irradiation
Protocol: as §4
as §3, with “Immuno-complexes were washed four times with NETN lysis buffer (20 mM Tris, pH 8.0, 100 mM NaCl, 1 mM EDTA and 0.5% NP-40) before being resolved by SDS-PAGE and immunoblotted with indicated antibodies.” left out

IKZF1 [4] = target: T3, IKZF1; test: In vivo ubiquitination assay of IKZF1 by CRBN in HEK293T cells (Ni-NTA pull down); assay type: cell-based; parameters: expressed in transfected cells; host or cells: HEK293T; conditions: UVA irradiation (365 nm) 15 min
Protocol: Briefly, HEK293T cells were transfected with Flag-CRBN, His-ubiquitin and HA-IKZF1 or GFP-BRD2 or GFP-BRD3. 24 hours after transfection, pomalidomide, opto-pomalidomide, dBET1 or opto-dBET1 were added to the cell culture together with 10 μM MG132 for 12 hours and cells were harvested in denatured buffer A (6 M guanidine-HCl, pH 8.0, 0.1 M Na2HPO4/NaH2PO4, 10 mM imidazole). After sonication, the ubiquitinated proteins were purified by incubation with Ni-NTA matrices for 3 hours at room temperature. The pull-down products were washed sequentially twice in buffer A, twice in buffer ANTI mixture (buffer A: buffer TI=1:3) and once in buffer TI (25 mM Tris-HCl, pH 6.8, 20 mM imidazole). The poly-ubiquitinated proteins were separated by SDS-PAGE for immunoblot analysis.

- maximum in absorption of UV-VIS absorption spectrum [2]: 364 nm
- binding with CRBN (CRBN; after UVA irradiation (365 nm, 30 min)): regained ability to bind with CRBN
- binding with CRBN (CRBN; without UVA irradiation): ineffective to bind with CRBN in vitro
- degradation of IKZF1 (IKZF1 [3]): mediate IKZF1 degradation in MT2 cells
SMILES: COc1cc(COC(=O)N2C(=O)CCC(N3C(=O)c4cccc(N)c4C3=O)C2=O)c([N+](=O)[O-])cc1OC (stereo not drawn) [opto-pomalidomide, 4,5-dimethoxy-2-nitrobenzyl 3-(4-amino-1,3-dioxoisoindolin-2-yl)-2,6-dioxopiperidine-1-carboxylate]
- uncaging (photolysis) by UVA irradiation in vitro [1]: could be induced to undergo photolysis by UVA irradiation in vitro
- interaction between CRBN and IKZF1 (CRBN and IKZF1; UVA irradiation (365 nm) 15 min): regained the ability to promote the binding between CRBN and IKZF 1
- interaction between CRBN and IKZF1 (CRBN and IKZF1; without UVA irradiation): ineffective in guiding the protein-protein interaction between CRBN and IKZF1
- degradation of IKZF1/3 (IKZF1/3; MM1S cells, UVA irradiation (365 nm) for different durations): occurred in a drug-dose and UVA-dose dependent manner
- degradation of IKZF1/3 (IKZF1/3; MM1S-CRBN+/+ vs. MM1S-CRBN−/− cells, 12 hours, without UVA irradiation, opto-drug up to 10-fold excess): lost this function without UVA irradiation
- cell proliferation (CCK-8) (MM1S cells): largely dependent on UVA irradiation; also recorded: inhibits MM1S cell proliferation in a dose-dependent manner
- cell proliferation (CCK-8) (MT2 cells): inhibits MT2 cell proliferation in a dose-dependent manner
- ubiquitination of IKZF1 by CRBN (IKZF1 [4]): leading to CRBN-mediated IKZF1 ubiquitination
